In patent US9795619B2, “Pharmaceutical compositions” (priority 2012, dated 2017):
Values belong to the molecule of their own block, whether it stands above or below them.

Assays:
HIV [1] = conditions: cited from earlier work
[2] = LAP Rat PK study, SQ and IM injections (IV values given for reference); set-up: species or system Sprague-Dawley rats; conditions: Sprague-Dawley, in vivo, rat (FIG. 1)
[3] = as above; conditions: in vivo, Sprague-Dawley rats; for Cmax / Tmax / half-life: n=3
Experimental: Injections were made in Sprague-Dawley rats SQ and IM at 5 and 20 mg/kg doses with T1/2, Cmax, Tmax, and AUC being measured.

[4] = LAP Dog PK study, SQ and IM injections (IV values given for reference); set-up: species or system Beagle dogs; conditions: in vivo
[5] = as above; conditions: in vivo, dose 5 mg/kg, Beagle dogs
Experimental: Injections were also made in Beagle dogs SQ and IM at 5 and 20 mg/kg doses with T1/2, Cmax, Tmax, and AUC measured.

HIV [6] = assay: human protein adjusted IC90 (reference line in FIG. 1 and FIG. 2); format: cell-based
[7] = dog, sc, SQ, dose 2.5 mg/kg, Beagle dogs, n=3
[8] = dog, IM, dose 2.5 mg/kg, Beagle dogs, n=3

Structure (SMILES): C=C(C)[C@@H]1CC[C@]2(C(=O)O)CC[C@]3(C)[C@H](CC[C@@H]4[C@@]5(C)CC[C@H](OC(=O)CC(C)(C)C(=O)O)C(C)(C)[C@@H]5CC[C@]43C)[C@@H]12 [Bevirimat]
reduced HIV viral load by a mean of (HIV [1]; patients with trough levels >=20 μg/mL and without key baseline Gag polymorphisms at Q369, V370 or T371): 1.3 log10/mL
HIV viral load reduction versus patients without Gag polymorphisms (HIV [1]; users with Gag polymorphisms at Q369, V370 or T371): significantly lower load reductions

AUC(0-t) ([2]; read-out: AUC0-24 IV): 2960 ng·h/mL
half-life ([2]; read-out: T1/2 IV (converted)): 3.4 h
Cmax ([3]; IM, dose 5 mg/kg): 100 ± 7.8 ng/mL
Tmax ([3]; IM, dose 5 mg/kg): 5.3 ± 2.3 h
half-life ([3]; IM, dose 5 mg/kg): 149 h
AUC(0-t) ([3]; IM, dose 5 mg/kg, t printed as '= days' (no number)): 7700 ng·h/mL
Cmax ([3]; IM, dose 20 mg/kg): 178 ± 56.9 ng/mL
Tmax ([3]; IM, dose 20 mg/kg): 8 ± 4 h
half-life ([3]; IM, dose 20 mg/kg): 298 h
AUC(0-t) ([3]; IM, dose 20 mg/kg, t = 42 days): 24900 ng·h/mL
Cmax ([3]; sc, SQ, dose 5 mg/kg): 170 ± 9.2 ng/mL
Tmax ([3]; sc, SQ, dose 5 mg/kg): 6.7 ± 2.3 h
half-life ([3]; sc, SQ, dose 5 mg/kg): 120 h
AUC(0-t) ([3]; sc, SQ, dose 5 mg/kg, t = 24 days): 8000 ng·h/mL
Cmax ([3]; sc, SQ, dose 20 mg/kg): 285 ± 48.4 ng/mL
Tmax ([3]; sc, SQ, dose 20 mg/kg): 6.7 ± 2.3 h
half-life ([3]; sc, SQ, dose 20 mg/kg): 463 h
AUC(0-t) ([3]; sc, SQ, dose 20 mg/kg, t = 57 days): 23900 ng·h/mL
AUC(0-t) ([4]; Beagle, IV, dog (FIG. 2), read-out: AUC0-24 IV): 4150 ng·h/mL
half-life ([4]; Beagle, IV, dog (FIG. 2), read-out: T1/2 IV (converted)): 6.9 h
Cmax [4, 7]: 38 ± 11 ng/mL
Tmax [4, 7]: 144 h
half-life ([4]; dog, sc, SQ, dose 2.5 mg/kg, Beagle dogs, n=3, read-out: T1/2 (converted)): 96 h
AUC(0-t) ([4]; dog, sc, SQ, dose 2.5 mg/kg, Beagle dogs, t = 22 days, read-out: AUC0-t): 7900 ng·h/mL
Cmax [4, 8]: 59.3 ± 23.2 ng/mL
Tmax [4, 8]: 80 ± 13.9 h
half-life ([4]; dog, IM, dose 2.5 mg/kg, Beagle dogs, n=3, read-out: T1/2 (converted)): 72 h
AUC(0-t) ([4]; dog, IM, dose 2.5 mg/kg, Beagle dogs, t = 17 days, read-out: AUC0-t): 8600 ng·h/mL
Tmax ([4]; dog, IM, dose 5 mg/kg, Beagle dogs, n=3): 128 ± 27.7 h
Cmax ([5]; IM, n=3): 69.7 ± 7.2 ng/mL
half-life ([5]; IM, n=3): 118 h
AUC(0-t) ([5]; IM, t = 36 days): 16200 ng·h/mL
Cmax ([5]; sc, SQ, n=3): 59 ± 14.5 ng/mL
Tmax ([5]; sc, SQ, n=3): 208 ± 55.4 h
half-life ([5]; sc, SQ, n=3): 127 h
AUC(0-t) ([5]; sc, SQ, t = 40 days): 17400 ng·h/mL
human protein adjusted IC90 (HIV [6]): 4.31 ng/mL
Structure (SMILES): CC(C)C1=C2[C@H]3CC[C@@H]4[C@@]5(C)CC[C@H](OC(=O)CC(C)(C)C(=O)O)C(C)(C)[C@@H]5CC[C@@]4(C)[C@]3(C)CC[C@@]2([C@@H](O)CN(CCN(C)C)Cc2ccc(Cl)cc2)CC1=O [compound of Formula I, 4-(((3aR,5aR,5bR,7aR,9S,11aR,11bR,13aS)-3a-((R)-2-((4-Chlorobenzyl)(2-(dimethylamino)ethyl)amino)-1-hydroxyethyl)-1-isopropyl-5a,5b,8,8,11a-pentamethyl-2-oxo-3,3a,4,5,5a,5b,6,7,7a,8,9,10,11,11a,11b,12,13,13a-octadecahydro-2H-cyclopenta[a]chrysen-9-yl)oxy)-2,2-dimethyl-4-oxobutanoic acid]
